{"source": "paper PMC9942619", "about": "“Oseltamivir phosphate for suspension is bioequivalent to TAMIFLU in healthy volunteers: a randomized, open-label clinical study” (BMC Pharmacology & Toxicology, 2023)", "key": {"[1]": {"test": "Single-dose crossover pharmacokinetics of oseltamivir and oseltamivir carboxylate in plasma (HPLC-MS/MS, non-compartmental analysis)", "type": "in vivo, healthy Chinese subjects", "settings": "fed vs fasting; plasma analyte", "description": "This study was developed in healthy subjects in the fasting or postprandial state, using a single-dose, randomized, open-label, two-period, two-sequence, self-crossover design. It authorized by the Ethics Committee of the First Affiliated Hospital of Bengbu Medical College. The ethical approval process complies with the requirements of Good Clinical Practice (GCP), the Declaration of Helsinki and relevant Chinese laws and regulations. Registration number CTR20200764 at 26-Apr-2020. http://www.chinadrugtrials.org.cn/clinicaltrials.searchlist.dhtml.\nAccording to \"the Guiding Principles for Human Bioavailability and Bioequivalence test of Pharmaceutical Preparations (2015 Edition)\", \"the Guiding Principles for Human Bioequivalence Research of Chemical Drug Imitations with Pharmacokinetic Parameters as the End Point Evaluation Indicators\", and recommended dose in Tamiflu® instructions, the single oral dose of 75 mg/12.5 mL was determined for the reference preparation and test preparation of this study. […] Assuming one-sided α = 0.05, β = 0.2, %CV of 31.87%, a mean ratio F between the test product and reference product of 1, and the bioequivalence interval of 80.00–125.00%, the sample size of the two-period, crossover study design is 35 cases, calculated by PASS software. […] The quantitative linear range of oseltamivir is 0.500–200 ng/mL, and the LLOQ is 0.500 ng/mL. The quantitative linear range of oseltamivir carboxylate is 4.00–800 ng/mL, and the LLOQ is 4.00 ng/mL.\nPharmacokinetic parameters of oseltamivir and oseltamivir carboxylate were calculated using Phoenix WinNonlin (Pharsight Corporation, 8.3.1) based on individual blood concentrations and sampling time (calculated by actual sampling time) using non-compartmental analysis (NCA), Cmax, Tmax, AUC0-t, AUC0-∞, t1/2, λz, as well as %AUCex for oseltamivir and oseltamivir carboxylate were included. […]"}, "[2]": {"parameters": "method as in doi:10.1002/14651858.CD008965.pub4, PMID 25640810, PMID 12908848", "settings": "cited from earlier work"}, "[3]": {"parameters": "method as in earlier work", "settings": "used for sample size estimation; cited from earlier work"}, "[4]": {"tested_on": "influenza pneumonia", "parameters": "method as in PMID 33718494", "settings": "early treatment compared with late treatment; cited from earlier work"}}}
{"molecule": "CCC(CC)O[C@@H]1C=C(C(=O)O)C[C@H](N)[C@H]1NC(C)=O", "note": "[oseltamivir carboxylate]", "values": [{"measurement": "Cmax, AUC0-t under fed conditions", "setting": "[1]", "result": "lowered"}, {"measurement": "change of AUC0-∞ after feeding", "setting": "[1]", "result": "decreases"}]}
{"molecule": "CCOC(=O)C1=C[C@@H](OC(CC)CC)[C@H](NC(C)=O)[C@@H](N)C1", "note": "[oseltamivir phosphate]", "values": [{"measurement": "incidence of other side effects (conjunctivitis, rhinorrhagia, allergy, cardiac arrhythmias, gastrointestinal bleeding, neuropsychiatric events etc.)", "setting": "[2]", "result": "< 1", "unit": "%"}, {"measurement": "incidence of nausea", "setting": "[2]; most common side effects", "result": 10, "unit": "%"}, {"measurement": "incidence of vomiting", "setting": "[2]; most common side effects", "result": "2–15%"}]}
{"molecule": "CCOC(=O)C1=C[C@@H](OC(CC)CC)[C@H](NC(C)=O)[C@@H](N)C1", "note": "[oseltamivir]", "values": [{"measurement": "change of AUC0-∞ after feeding", "setting": "[1]", "result": "increases"}, {"measurement": "intra-individual coefficient of variation (%CV) of AUC", "setting": "[3]", "result": "7.24–7.35%"}, {"measurement": "intra-individual coefficient of variation (%CV) of Cmax", "setting": "[3]", "result": "21.16–31.87%"}, {"measurement": "reduction in ICU mortality", "setting": "[4]", "result": 33, "unit": "%"}]}
